Results on five compounds are retold here after patent publication US9273115B2, “Method for controlling the biological activity of a protein in a vertebrate cell” (CENTRE NATIONAL DE LA RECHERCHE SCIENTIFIQUE (CNRS), priority 2009, dated 2016).

Changes are numbered by the printed parent chain.

The target of series [1] is T1, Cre-ERM^Db (Homo sapiens, UniProt P03372, A350M/G400V/G521S/L346I/M388Q/Y526D).
T1 sequence (P03372 311-547 L346I/A350M/M388Q/G400V/G521S/Y526D limits assumed): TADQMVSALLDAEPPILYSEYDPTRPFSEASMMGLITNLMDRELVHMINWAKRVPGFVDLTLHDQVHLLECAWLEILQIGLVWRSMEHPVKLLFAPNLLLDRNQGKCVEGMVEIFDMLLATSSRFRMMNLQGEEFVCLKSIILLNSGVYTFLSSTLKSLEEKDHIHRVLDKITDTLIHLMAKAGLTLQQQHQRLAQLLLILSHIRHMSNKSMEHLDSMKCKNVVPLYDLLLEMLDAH
How it is done:
(§1) F9^+/(LNL) cells (Clifford et al., 1996; Metzger et al., 1995) were coelectroporated with 5 μg pCre-ER expression vectors and 1 μg pPGK-hyg, that had been digested with AseI and PvuII, respectively. Hygromycin-resistant clones were obtained as described (Metzger et al., 1995). To analyse Cre-mediated DNA excision, such clones were plated in 24-well plates at a density of 6×10^3 cells, and grown in the presence of 100 nM all-trans retinoic acid (RA). […] PCR amplification of a segment of the RXRα WT allele (+) and recombined RXRα (Δ) allele from their genomic DNA was carried out using the primers 5′-[…]-3′ (SEQ ID No. 1) and 5′-[…]-3′ (SEQ ID No. 2) (+, ˜300 bp; Δ, ˜350 bp), as described (Feil et al., 1997).

The nature of series [2]: Plasma levels after i.p. administration. It is filed as in vivo, mice.
Method: For intraperitoneal and gavage administration, compounds dissolved in ethanol were diluted at 10 mg/ml in sunflower oil, and 100 μl were i.p. injected or orally administered to mice.
The nature of series [3]: Blood hematology and plasma biochemical profile at D19. The format is in vivo, mice. More on the design: Bilirubin / Uric acid / Iron: unit not given here. The following applies: for ALAT / ALP / ASAT / Albumin / Bilirubin / Cholesterol / Glucose / HCT, hematocrit / HGB, hemoglobin / Iron / K / MCH, mean corpuscular hemoglobin / MCHC, mean corpuscular hemoglobin concentration / MCV, mean corpuscular volume / Magnesium / Na / Phosphorus / Total protein / Triglycerides / Uric acid: 1 mg daily ip D1 to D5, means +/− SD, n = 3.

A short description of series [4]: Liver histology of treated mice. It is filed as in vivo. The following applies: DHB-treated mice.
For series [5], the target named is T2, Cre-ERM^Dc (Homo sapiens, UniProt P03372, A350M/G442Y/G521S/L346I/L466S/M388Q/Y459N/Y526D).
T2 sequence (P03372 311-547 L346I/A350M/M388Q/G442Y/Y459N/L466S/G521S/Y526D limits assumed): T1 sequence (P03372 311-547 L346I/A350M/M388Q/G400V/G521S/Y526D limits assumed) with V90G, G132Y, Y149N, L156S
The series is described as follows: PCR detection of Cre-mediated floxed DNA excision in Cre-ERM^Dc/RXRα^+/(LNL) F9 cells. The format is cell-based. More on the design: Cre recombinase (bacteriophage P1); expressed in transfected cells. The conditions noted are these: F9 clone; one of 9 active clones. The procedure:
as §1

Series [6] concerns the target T1, Cre-ERM^Db. The series is described as follows: X-Gal staining of skin sections of K14-Cre-ERM^Db/RosaR26R mice (Cre-mediated recombination in keratinocytes). The following applies: for Cre-mediated recombination in Cre-ERM^Db-expressing keratinocytes of ear skin (distal) / Cre-mediated recombination in Cre-ERM^Db-expressing keratinocytes of tail treated skin: daily tail topical treatment 1 or 0.2 mg for 5 days; for Cre-mediated recombination in keratinocytes expressing Cre-ERM^Db: ear treatment 1 mg/day for 5 days, ear sections at day 12.
Method: For topical application, DHB, DHBD, HMB or MB dissolved in ethanol at 100 mg/ml was diluted two times in acetone, and 20 μl (1 mg) was daily applied on one cm^2 ear or tail skin for 5 days. For intraperitoneal and gavage administration, compounds dissolved in ethanol were diluted at 10 mg/ml in sunflower oil, and 100 μl were i.p. injected or orally administered to mice.
β-Galactosidase histochemistry was performed on 10 μm-thick frozen section, stained with X-Gal (5-bromo-4-chloro-3-indolyl β-D-galactoside), as described (Brocard et al., 1997).

Series [7] concerns the target T1, Cre-ERM^Db. Put plainly: Immunocytochemistry of pCre-ERM^Db-transfected Cos-1 cells (nuclear translocation). The format is cell-based, monkey. More on the design: Cre recombinase (bacteriophage P1); expressed in transfected cells; host or cells: Cos-1 cells (transient, pCre-ERM^Db) for A2. The following applies: 3 μM DHB for 24 hrs. How it is done: (§2) Cos-1 cells grown on Lab-TekII chamber slides (Nalge Nunc International) were transfected with 0.25 μg pCre-ERM expression vectors with Fugene, according to the manufacturer's instruction and treated with vehicle (ethanol) or 3 μM DHB for 24 hrs.

The target in series [8] is T2, Cre-ERM^Dc. Put plainly: Immunocytochemistry of Cre-ERM^Dc (translocation from cytoplasm to nucleus). The format is cell-based. More on the design: Cre recombinase (bacteriophage P1); expressed in transfected cells; host or cells: Cos-1 cells (transient, pCre-ERM^Dc) for A3. The following applies: data not shown. The procedure: as §2
Series [9] concerns the target T3, Cre-ERM^Da (Homo sapiens, UniProt P03372, A350M/G521S/L346I/M388Q/Y526D).
T3 sequence (P03372 311-547 L346I/A350M/M388Q/G521S/Y526D limits assumed): T1 sequence (P03372 311-547 L346I/A350M/M388Q/G400V/G521S/Y526D limits assumed) with V90G
The series is described as follows: PCR detection of Cre-mediated floxed DNA excision in Cre-ERM^Da/RXRα^+/(LNL) F9 cells. More on the design: a fusion protein between Cre and the L346I, A350M, M388Q, G521S, Y526D mutant ERα LBD; Cre recombinase (bacteriophage P1); expressed in transfected cells. The format is cell-based, mouse. The following applies: 3 μM DHB, 3 days. How it is done:
as §1

For series [10], the target named is T3, Cre-ERM^Da. The series is described as follows: Immunocytochemistry of pCre-ERM^Da-transfected Cos-1 cells (nuclear translocation). It is filed as cell-based, African green monkey. More on the design: a fusion protein between Cre and the L346I, A350M, M388Q, G521S, Y526D mutant ERα LBD; Cre recombinase (bacteriophage P1); expressed in transfected cells; host or cells: Cos-1 cells (transient, pCre-ERM^Da) for A1. The following applies: 3 μM DHB for 24 hrs. The procedure: as §2

`O=C(C(=O)c1ccc(O)cc1)c1ccc(O)cc1` [DHB, 4,4′-dihydroxybenzil]: on Cre-ERM^Db [1] (F9 clone, ligand 3 μM), the “Cre-mediated floxed DNA excision (Cre-ERM^Db recombinase activity)” value is recorded as “efficiently induced Cre-mediated floxed DNA excision”. Further, the in vivo clearance entry in series [2] (1 mg i.p.) is on record as “high”. For the same compound, the plasma levels entry in series [2] (1 mg i.p., 22 hours after the two-hour sample) is “undetectable”. Also, the concentration at 2 h in series [2] (mouse, plasma, ip, two hours after 1 mg i.p.) amounted to 550 ng/mL. Besides, in series [3] (1 mg daily ip D1 to D5), the “blood hematology and plasma biochemical profiles versus vehicle” value was “did not reveal major difference”. Also, in series [3] (female mice), the ALAT is on record as 27.7 +/− 2.9 U/l, the ALP is 137.0 +/− 14.1 U/l, the ASAT is 143.3 +/− 91.3 U/l and the Albumin stood at 28.7 ± 0.6 g/L. In addition, in [3] (female mice), the Bilirubin was 1.3 +/− 0.4; the Cholesterol amounted to 1.8 ± 0.1 mmol/L; the Glucose turned out to be 18.7 ± 3.5 mmol/L; the “HCT, hematocrit” value is on record as 38.9 +/− 2.3%. In series [3] (female mice), the “HGB, hemoglobin” value was 13.3 ± 0.8 g/dL; the Iron is 25.6 +/− 3.9; the K came to 5.8 ± 0.5 mmol/L; the “MCH, mean corpuscular hemoglobin” value amounted to 16.1 ± 0.2 pg. In addition, in [3] (female mice), the “MCHC, mean corpuscular hemoglobin concentration” value came to 34.2 ± 0.2 g/dL; the “MCV, mean corpuscular volume” value was found to be 47.2 ± 0.9 fL; the Magnesium was found to be 1.5 ± 0.1 mmol/L; the Na is 152 ± 1.0 mmol/L. In [3] (female mice), the Phosphorus was found to be 3.2 ± 0.1 mmol/L, the Total protein is 48 ± 2.6 g/L, the Triglycerides was found to be 0.6 ± 0.1 mmol/L and the Uric acid is on record as 193.0 +/− 58.4. Further, in [3] (male mice), the ALAT is on record as 34.7 +/− 17.5 U/l, the ALP is 114.3 +/− 8.1 U/l, the ASAT was 194 +/− 45.5 U/l and the Albumin amounted to 27.3 ± 3.5 g/L. Moreover, in series [3] (male mice), the Bilirubin is given as 2.0 +/− 0.3; the Cholesterol came out at 2.2 ± 0.2 mmol/L; the Glucose worked out at 21.4 ± 7.2 mmol/L; the “HCT, hematocrit” value is given as 40.0 +/− 3.7%. In series [3] (male mice), the “HGB, hemoglobin” value came to 14.0 ± 1.3 g/dL; the Iron is recorded as 24.9 +/− 1.4; the K was found to be 5.9 mmol/L; the “MCH, mean corpuscular hemoglobin” value turned out to be 16.0 ± 0.2 pg. Moreover, in [3] (male mice), the “MCHC, mean corpuscular hemoglobin concentration” value was found to be 34.9 ± 0.1 g/dL; the “MCV, mean corpuscular volume” value came out at 45.8 ± 0.5 fL; the Magnesium was determined as 1.2 ± 0.2 mmol/L; the Na is 149.7 ± 6.1 mmol/L. Besides, in series [3] (male mice), the Phosphorus was 3.6 ± 0.6 mmol/L, the Total protein is 48.3 ± 7.1 g/L, the Triglycerides stood at 0.8 ± 0.2 mmol/L and the Uric acid is recorded as 235.7 +/− 132.5. The “histological defects in liver” value in [4] was “no histological defects”. The “Cre-ERM^Dc Cre-mediated recombinase activity” value on Cre-ERM^Dc [5] was “strictly DHB-dependent”. Also, on Cre-ERM^Db [6] (1 mg topically to one ear D1 to D5, treated ear sampled at D12), the “β-galactosidase expression in epidermal keratinocytes” value (“β-galactosidase expression” below) is reported as “most, if not all epidermal keratinocytes from the treated ear expressed β-galactosidase”. For the same compound, at Cre-ERM^Db [6], the “Cre-mediated recombination in Cre-ERM^Db-expressing keratinocytes of ear skin (distal)” value is recorded as “induced efficient Cre-mediated recombination”, the “Cre-mediated recombination in Cre-ERM^Db-expressing keratinocytes of tail treated skin” value was “induced efficient Cre-mediated recombination” and the “Cre-mediated recombination in keratinocytes expressing Cre-ERM^Db” value is “efficiently induced”. Further, the “β-galactosidase expression” value on Cre-ERM^Db [6] (gavage 2 mg/day for 5 days) was “induced”. In addition, the “β-galactosidase expression” value at Cre-ERM^Db [6] (intraperitoneal injection 1 mg/day for 5 days) is on record as “induced”. Moreover, the “Cre-ERM^Db nuclear translocation” value on Cre-ERM^Db [7] is recorded as “induced its nuclear translocation”. Moreover, the “translocation of Cre-ERM^Dc from the cytoplasm to the nucleus” value on Cre-ERM^Dc [8] is given as “induced translocation”. Further, on Cre-ERM^Da [9], the “Cre-ERM^Da recombinase activity” value is listed as “induced Cre-ERM^Da recombinase activity”. On Cre-ERM^Da [10], the “Cre-ERM^Da protein nuclear translocation” value is “induced Cre-ERM^Da protein nuclear translocation”.
On to `CC(C)(C)C(=O)Oc1ccc(C(=O)C(=O)c2ccc(OC(=O)C(C)(C)C)cc2)cc1` [DHBD, 4,4′-dihydroxylbenzyl dipivalate], for which, at Cre-ERM^Db [6], the “Cre-mediated recombination in Cre-ERM^Db-expressing keratinocytes of ear skin (distal)” value is “induced efficient Cre-mediated recombination” and the “Cre-mediated recombination in Cre-ERM^Db-expressing keratinocytes of tail treated skin” value is listed as “induced efficient Cre-mediated recombination”.
Take 4,4′-methoxybenzyl [MB]: on Cre-ERM^Db [6], the “Cre-mediated recombination in keratinocytes expressing Cre-ERM^Db” value is on record as “efficiently induced”.
For 4-hydroxytamoxifen [OHT], the “Cre-ERM^Db recombinase activity” value on Cre-ERM^Db [1] was “neither E2 nor OHT induced any recombinase activity”.
In the case of `COc1ccc(C(=O)C(=O)c2ccc(O)cc2)cc1` [HMB, 4-hydroxy-4′-methoxybenzyl], at Cre-ERM^Db [6], the “Cre-mediated recombination in keratinocytes expressing Cre-ERM^Db” value is “Induction of Cre-ERM^Db recombinase activity”.
